Experiment [1] deals with AMPKα1β1γ1 (AMP-activated protein kinase) (Homo sapiens, UniProt Q13131). Briefly: SPR. Type of experiment: binding.
Experiment [2] deals with AMPKα2β1γ1 (AMP-activated protein kinase) (Homo sapiens, UniProt P54619+P54646+Q9Y478). Briefly: SPR. It is filed as binding.
Chain of AMPKα2β1γ1 (AMP-activated protein kinase) (P54646 whole entry): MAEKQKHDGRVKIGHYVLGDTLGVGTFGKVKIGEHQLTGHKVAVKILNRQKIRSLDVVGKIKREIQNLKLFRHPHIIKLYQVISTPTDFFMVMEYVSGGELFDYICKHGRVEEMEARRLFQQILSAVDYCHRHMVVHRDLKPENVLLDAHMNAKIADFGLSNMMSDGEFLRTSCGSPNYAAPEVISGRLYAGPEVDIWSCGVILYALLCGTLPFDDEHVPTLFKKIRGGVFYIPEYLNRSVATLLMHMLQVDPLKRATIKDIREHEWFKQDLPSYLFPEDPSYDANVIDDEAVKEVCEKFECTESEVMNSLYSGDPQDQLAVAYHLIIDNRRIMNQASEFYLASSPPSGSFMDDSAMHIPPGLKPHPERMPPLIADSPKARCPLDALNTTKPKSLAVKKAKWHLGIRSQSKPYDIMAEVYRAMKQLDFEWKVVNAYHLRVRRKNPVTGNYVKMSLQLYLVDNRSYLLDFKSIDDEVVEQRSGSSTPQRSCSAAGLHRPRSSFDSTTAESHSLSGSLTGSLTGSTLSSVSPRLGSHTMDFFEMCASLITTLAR
Chain of AMPKα2β1γ1 (AMP-activated protein kinase) (Q9Y478 2-270 partner): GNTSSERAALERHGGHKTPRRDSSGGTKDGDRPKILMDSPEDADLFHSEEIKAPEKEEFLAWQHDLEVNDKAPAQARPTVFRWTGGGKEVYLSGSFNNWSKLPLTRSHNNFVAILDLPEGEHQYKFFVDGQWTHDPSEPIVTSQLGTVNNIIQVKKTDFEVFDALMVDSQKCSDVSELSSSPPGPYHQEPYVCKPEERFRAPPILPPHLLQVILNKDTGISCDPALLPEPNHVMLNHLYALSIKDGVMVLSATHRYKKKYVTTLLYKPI
Chain of AMPKα2β1γ1 (AMP-activated protein kinase) (P54619 whole entry partner): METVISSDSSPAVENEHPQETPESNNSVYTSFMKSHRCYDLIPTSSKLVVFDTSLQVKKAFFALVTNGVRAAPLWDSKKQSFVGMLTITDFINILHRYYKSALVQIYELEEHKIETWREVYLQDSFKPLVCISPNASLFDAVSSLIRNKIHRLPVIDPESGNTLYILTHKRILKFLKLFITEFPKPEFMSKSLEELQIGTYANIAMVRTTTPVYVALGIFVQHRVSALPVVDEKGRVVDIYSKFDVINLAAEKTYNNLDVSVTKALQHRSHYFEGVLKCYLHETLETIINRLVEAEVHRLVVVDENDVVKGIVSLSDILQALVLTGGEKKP

Chain of AMPKα1β1γ1 (AMP-activated protein kinase) (Q13131 whole entry): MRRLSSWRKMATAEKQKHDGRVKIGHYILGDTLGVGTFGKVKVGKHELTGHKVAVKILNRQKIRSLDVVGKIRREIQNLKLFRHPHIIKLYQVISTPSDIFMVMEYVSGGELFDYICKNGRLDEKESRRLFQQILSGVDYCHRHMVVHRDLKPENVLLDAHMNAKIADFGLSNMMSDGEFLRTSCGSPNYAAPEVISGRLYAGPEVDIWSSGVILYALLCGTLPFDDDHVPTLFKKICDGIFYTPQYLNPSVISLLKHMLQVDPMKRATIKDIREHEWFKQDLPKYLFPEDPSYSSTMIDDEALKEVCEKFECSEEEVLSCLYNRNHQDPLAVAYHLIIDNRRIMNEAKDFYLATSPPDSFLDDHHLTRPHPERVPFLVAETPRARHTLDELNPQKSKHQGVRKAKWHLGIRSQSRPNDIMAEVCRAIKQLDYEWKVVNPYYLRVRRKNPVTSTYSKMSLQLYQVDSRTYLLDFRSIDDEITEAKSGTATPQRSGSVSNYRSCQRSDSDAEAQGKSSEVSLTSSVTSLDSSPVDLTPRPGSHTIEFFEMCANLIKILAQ
Chain of AMPKα1β1γ1 (AMP-activated protein kinase) (Q9Y478 2-270 partner): as the sequence (Q9Y478 2-270 partner) above
Chain of AMPKα1β1γ1 (AMP-activated protein kinase) (P54619 whole entry partner): as the sequence (P54619 whole entry partner) above

As for `OC[C@H]1O[C@@H](Oc2c(O)cc(O)cc2/C=C/c2ccc(O)cc2)[C@H](O)[C@@H](O)[C@@H]1O` [TSG, 2,3,5,4′-tetrahydroxystilbene-2-O-β-D-glucoside], the values for the dissociation constant Kd in experiment [1] and in experiment [2] were 3.77 µM and 4.67 µM, respectively.

For the origin of these results see PMC11976424 (Journal of Advanced Research, 2024).
